Laboratory results from ChEMBL document CHEMBL5543164 (J Med Chem, 2024).
One block for each compound: values may come before it.

Assays:
[1] = target: T1, Phosphatidylinositol 4,5-bisphosphate 3-kinase catalytic subunit delta isoform (Homo sapiens, UniProt O00329)
T1 sequence (O00329 whole entry): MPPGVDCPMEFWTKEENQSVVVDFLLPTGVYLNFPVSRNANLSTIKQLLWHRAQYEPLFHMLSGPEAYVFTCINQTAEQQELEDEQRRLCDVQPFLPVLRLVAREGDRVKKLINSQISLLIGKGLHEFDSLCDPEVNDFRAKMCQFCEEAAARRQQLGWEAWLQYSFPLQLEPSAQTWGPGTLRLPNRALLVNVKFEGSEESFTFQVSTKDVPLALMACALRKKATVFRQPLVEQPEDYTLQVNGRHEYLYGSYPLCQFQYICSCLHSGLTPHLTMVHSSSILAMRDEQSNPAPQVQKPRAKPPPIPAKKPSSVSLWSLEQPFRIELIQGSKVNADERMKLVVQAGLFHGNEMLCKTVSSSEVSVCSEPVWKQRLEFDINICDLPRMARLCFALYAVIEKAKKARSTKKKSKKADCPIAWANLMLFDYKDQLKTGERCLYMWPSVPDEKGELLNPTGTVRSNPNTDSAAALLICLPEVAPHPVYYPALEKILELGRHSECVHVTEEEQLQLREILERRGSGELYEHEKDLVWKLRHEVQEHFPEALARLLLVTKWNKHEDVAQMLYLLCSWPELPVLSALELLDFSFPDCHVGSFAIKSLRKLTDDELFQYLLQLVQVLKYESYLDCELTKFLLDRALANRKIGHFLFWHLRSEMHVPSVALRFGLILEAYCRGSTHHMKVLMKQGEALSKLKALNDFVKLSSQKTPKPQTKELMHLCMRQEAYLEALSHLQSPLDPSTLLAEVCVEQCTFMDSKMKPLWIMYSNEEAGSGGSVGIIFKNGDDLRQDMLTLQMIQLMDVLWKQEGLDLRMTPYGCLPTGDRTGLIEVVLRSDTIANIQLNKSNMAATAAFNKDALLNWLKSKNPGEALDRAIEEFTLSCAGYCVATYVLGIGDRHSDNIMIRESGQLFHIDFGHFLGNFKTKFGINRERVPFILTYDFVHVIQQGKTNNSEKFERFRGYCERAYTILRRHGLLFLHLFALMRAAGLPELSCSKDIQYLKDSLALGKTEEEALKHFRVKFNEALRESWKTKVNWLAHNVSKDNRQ

[2] = target: Phosphatidylinositol 4,5-bisphosphate 3-kinase catalytic subunit gamma isoform (Homo sapiens, UniProt P48736); experiment: Inhibition of PI3Kgamma (unknown origin) by ADP-glo plus luminescence assay
Sequence of Phosphatidylinositol 4,5-bisphosphate 3-kinase catalytic subunit gamma isoform (P48736 whole entry, canonical isoform): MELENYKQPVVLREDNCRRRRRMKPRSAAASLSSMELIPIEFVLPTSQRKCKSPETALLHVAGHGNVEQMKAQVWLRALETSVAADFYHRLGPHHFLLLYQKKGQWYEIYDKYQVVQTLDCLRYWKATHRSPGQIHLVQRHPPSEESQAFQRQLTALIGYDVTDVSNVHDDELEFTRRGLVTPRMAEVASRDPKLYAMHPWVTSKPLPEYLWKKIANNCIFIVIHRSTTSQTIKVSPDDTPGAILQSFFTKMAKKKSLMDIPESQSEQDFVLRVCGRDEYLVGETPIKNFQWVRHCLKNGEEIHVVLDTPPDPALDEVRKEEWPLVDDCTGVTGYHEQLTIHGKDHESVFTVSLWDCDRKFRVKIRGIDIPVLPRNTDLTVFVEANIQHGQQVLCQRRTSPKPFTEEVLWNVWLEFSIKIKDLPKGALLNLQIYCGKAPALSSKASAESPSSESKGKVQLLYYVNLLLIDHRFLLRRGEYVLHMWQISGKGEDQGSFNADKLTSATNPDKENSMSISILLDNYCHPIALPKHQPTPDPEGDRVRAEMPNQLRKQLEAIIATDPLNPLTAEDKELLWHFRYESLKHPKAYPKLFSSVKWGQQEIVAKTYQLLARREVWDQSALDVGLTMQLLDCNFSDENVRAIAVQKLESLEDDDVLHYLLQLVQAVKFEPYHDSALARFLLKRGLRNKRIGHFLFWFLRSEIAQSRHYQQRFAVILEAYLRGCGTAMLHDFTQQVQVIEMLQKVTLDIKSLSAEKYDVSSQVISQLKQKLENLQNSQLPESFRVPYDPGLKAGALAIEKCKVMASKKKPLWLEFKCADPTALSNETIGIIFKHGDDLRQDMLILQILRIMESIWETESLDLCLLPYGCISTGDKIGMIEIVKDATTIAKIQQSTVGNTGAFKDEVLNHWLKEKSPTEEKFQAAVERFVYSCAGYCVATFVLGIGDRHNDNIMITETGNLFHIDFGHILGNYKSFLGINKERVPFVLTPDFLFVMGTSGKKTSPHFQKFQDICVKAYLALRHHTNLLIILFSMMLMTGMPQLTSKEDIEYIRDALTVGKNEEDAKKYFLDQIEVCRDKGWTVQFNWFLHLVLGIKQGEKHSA

[3] = target: Phosphatidylinositol 4,5-bisphosphate 3-kinase catalytic subunit beta isoform (Homo sapiens, UniProt P42338)
Sequence of Phosphatidylinositol 4,5-bisphosphate 3-kinase catalytic subunit beta isoform (P42338 whole entry, canonical isoform): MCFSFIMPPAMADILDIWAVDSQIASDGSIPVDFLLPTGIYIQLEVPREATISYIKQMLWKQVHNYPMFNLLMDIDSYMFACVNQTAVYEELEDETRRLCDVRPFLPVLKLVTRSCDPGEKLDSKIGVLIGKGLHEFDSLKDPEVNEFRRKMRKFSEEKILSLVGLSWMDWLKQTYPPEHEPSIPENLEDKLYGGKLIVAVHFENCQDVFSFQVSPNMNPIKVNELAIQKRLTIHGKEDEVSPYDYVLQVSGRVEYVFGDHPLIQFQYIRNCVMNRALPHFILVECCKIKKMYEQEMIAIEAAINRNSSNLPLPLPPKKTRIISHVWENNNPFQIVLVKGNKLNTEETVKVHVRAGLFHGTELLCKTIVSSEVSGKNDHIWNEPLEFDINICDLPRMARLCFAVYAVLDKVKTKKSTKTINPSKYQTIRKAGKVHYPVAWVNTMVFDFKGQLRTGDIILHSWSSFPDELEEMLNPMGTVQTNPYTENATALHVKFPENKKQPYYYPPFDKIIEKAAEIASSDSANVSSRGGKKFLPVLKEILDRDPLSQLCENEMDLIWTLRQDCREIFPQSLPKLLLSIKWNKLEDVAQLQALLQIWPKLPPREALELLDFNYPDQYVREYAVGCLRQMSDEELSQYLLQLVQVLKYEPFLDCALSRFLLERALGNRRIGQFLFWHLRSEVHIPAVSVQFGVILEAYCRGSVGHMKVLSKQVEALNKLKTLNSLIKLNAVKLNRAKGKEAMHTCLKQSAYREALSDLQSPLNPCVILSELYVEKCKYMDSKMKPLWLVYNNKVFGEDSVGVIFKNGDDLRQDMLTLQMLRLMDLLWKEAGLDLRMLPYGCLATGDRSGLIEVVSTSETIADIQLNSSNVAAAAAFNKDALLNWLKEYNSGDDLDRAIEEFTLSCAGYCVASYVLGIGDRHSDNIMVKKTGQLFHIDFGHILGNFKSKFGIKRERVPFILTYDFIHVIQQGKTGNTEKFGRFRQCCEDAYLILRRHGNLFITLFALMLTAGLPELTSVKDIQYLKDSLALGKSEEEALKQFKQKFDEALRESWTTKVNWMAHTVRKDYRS

[4] = target: Phosphatidylinositol 4,5-bisphosphate 3-kinase catalytic subunit alpha isoform (Homo sapiens, UniProt P42336); experiment: Inhibition of PI3Kalpha (unknown origin) by ADP-glo plus luminescence assay
Sequence of Phosphatidylinositol 4,5-bisphosphate 3-kinase catalytic subunit alpha isoform (P42336 whole entry, canonical isoform): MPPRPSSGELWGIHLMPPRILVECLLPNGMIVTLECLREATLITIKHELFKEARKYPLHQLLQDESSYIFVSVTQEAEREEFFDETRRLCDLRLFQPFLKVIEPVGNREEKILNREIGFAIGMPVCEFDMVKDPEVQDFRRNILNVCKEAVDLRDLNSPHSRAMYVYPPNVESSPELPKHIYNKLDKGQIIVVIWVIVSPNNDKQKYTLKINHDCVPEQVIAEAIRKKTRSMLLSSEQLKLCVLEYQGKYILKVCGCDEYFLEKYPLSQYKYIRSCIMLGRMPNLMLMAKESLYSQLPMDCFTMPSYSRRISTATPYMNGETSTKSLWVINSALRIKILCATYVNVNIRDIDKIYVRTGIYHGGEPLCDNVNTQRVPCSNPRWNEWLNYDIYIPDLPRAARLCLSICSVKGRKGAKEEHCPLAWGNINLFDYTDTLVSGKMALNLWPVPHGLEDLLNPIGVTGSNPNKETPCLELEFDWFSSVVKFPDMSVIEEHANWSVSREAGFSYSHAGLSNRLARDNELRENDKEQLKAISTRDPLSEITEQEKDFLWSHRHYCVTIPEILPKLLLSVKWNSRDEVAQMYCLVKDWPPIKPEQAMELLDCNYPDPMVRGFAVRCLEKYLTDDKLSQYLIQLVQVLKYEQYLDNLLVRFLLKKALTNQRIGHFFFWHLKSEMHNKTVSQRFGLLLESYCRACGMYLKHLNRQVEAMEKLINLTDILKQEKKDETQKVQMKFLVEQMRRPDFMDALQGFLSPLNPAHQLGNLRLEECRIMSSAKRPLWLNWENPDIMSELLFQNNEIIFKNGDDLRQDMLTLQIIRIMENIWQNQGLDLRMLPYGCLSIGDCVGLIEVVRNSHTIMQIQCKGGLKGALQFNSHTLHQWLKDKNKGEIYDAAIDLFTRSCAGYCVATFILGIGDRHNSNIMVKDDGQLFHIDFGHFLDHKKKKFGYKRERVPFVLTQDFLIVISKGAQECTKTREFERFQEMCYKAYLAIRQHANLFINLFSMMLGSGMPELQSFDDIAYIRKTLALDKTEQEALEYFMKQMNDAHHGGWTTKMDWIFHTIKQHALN

[5] = target: Serine/threonine-protein kinase mTOR (Homo sapiens, UniProt P42345)
HCT-116 = experiment: Antiproliferative activity against human HCT-116 cells assessed as inhibition of cell growth incubated for 48 hrs by CCK-8 assay; type: functional, cell-based; conditions: HCT-116, 48 h
HeLa = experiment: Antiproliferative activity against human HeLa cells assessed as inhibition of cell growth incubated for 48 hrs by CCK-8 assay; type: functional, cell-based
MDA-MB-231 = experiment: Antiproliferative activity against human MDA-MB-231 cells assessed as inhibition of cell growth incubated for 48 hrs by CCK-8 assay; type: functional, cell-based; conditions: MDA-MB-231, 48 h
HepG2 = experiment: Antiproliferative activity against human HepG2 cells assessed as inhibition of cell growth incubated for 48 hrs by CCK-8 assay; type: functional, cell-based; conditions: HepG2, 48 h
MCF7 = experiment: Antiproliferative activity against human MCF7 cells assessed as inhibition of cell growth incubated for 48 hrs by CCK-8 assay; type: functional, cell-based; conditions: MCF7, 48 h
CNE-2 = experiment: Antiproliferative activity against human CNE-2 cells assessed as inhibition of cell growth incubated for 48 hrs by CCK-8 assay; type: functional, cell-based; conditions: CNE-2, 48 h

IC50 [1]: 0.234 µM | IC50 [2]: 0.228 µM | IC50 [3]: 0.157 µM
SMILES: O=C(Nc1ccc(-c2nc(N3CCOCC3)nc(N3CCO[C@@H](CO)C3)n2)cc1)Nc1ccc2c(c1)COC2=O

IC50 [1]: 1.32 µM | IC50 [2]: 0.725 µM | IC50 [3]: 0.754 µM
SMILES: C[C@H]1COCCN1c1nc(-c2ccc(NC(=O)Nc3ccc4c(c3)COC4=O)cc2)nc(N2CCOCC2)n1

IC50 (HCT-116): 0.77 µM | IC50 [5]: 0.02 µM | IC50 (HeLa): 12.6 µM | IC50 (MDA-MB-231): 11.9 µM | IC50 (HepG2): > 100 µM | IC50 (MCF7): 1.13 µM
SMILES: O=C(Nc1ccc(-c2nc(N3CCOCC3)nc(N3C4CCC3CNC4)n2)cc1)Nc1ccc2c(c1)COC2=O
IC50 (CNE-2): 2.27 µM

IC50 [5]: 0.0046 µM
SMILES: O=C(Nc1ccc(-c2nc(N3CCOCC3)nc(N3CC4CCC(C3)O4)n2)cc1)Nc1ccc2c(c1)COC2=O

More lines, now with the values behind:

SMILES: CC1OC(=O)c2cc(NC(=O)Nc3ccc(-c4nc(N5CCOCC5)nc(N5CCOCC5)n4)cc3)ccc21 (stereo not drawn)
IC50 [4]: 0.0454 µM | IC50 [5]: 0.0072 µM

SMILES: CC(C)(C)OC(=O)N1C(=O)c2ccc(NC(=O)Nc3ccc(-c4nc(N5CCOCC5)nc(N5CCOCC5)n4)cc3)cc2C1=O
IC50 [4]: 0.379 µM

SMILES: CC(C)(C)OC(=O)N1CC2CCC(C1)N2c1nc(-c2ccc(NC(=O)Nc3ccc4c(c3)COC4=O)cc2)nc(N2CCOCC2)n1
IC50 [5]: 0.147 µM
